# Measured values reported in US11396517B1, “Exo-aza spiro inhibitors of menin-MLL interaction” (Janssen Pharmaceutica NV, priority 2017, dated 2022).
# Like-named read-outs stand apart in the source and are kept apart here.
# How the values were obtained:
# menin = target: T1, menin (Homo sapiens, UniProt O00255, T541A); experiment: Menin/MLL homogenous time-resolved fluorescence (HTRF) assay; assay type: binding
# T1 construct: Menin (a.a. 1-610-6×his tag)
# T1 sequence (O00255 with tags, fused parts or gaps T541A): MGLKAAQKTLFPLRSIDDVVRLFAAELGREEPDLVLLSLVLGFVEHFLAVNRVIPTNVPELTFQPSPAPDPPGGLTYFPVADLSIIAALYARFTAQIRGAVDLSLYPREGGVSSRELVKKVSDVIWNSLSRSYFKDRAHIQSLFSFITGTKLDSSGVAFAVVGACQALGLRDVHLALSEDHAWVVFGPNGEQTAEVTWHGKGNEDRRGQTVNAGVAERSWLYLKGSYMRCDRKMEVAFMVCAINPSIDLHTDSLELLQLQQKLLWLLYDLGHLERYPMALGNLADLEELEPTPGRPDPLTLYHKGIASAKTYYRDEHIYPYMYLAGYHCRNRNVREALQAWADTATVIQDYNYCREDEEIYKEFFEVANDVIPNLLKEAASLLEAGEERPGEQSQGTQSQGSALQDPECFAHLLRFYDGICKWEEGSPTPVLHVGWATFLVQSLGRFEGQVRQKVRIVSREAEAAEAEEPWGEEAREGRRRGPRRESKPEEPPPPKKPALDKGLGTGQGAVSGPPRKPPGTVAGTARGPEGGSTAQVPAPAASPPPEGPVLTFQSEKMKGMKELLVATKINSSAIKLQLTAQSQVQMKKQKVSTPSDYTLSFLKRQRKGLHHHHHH
# In short: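 Terbium-labeled menin (aa 1-610, His-tagged; […]) preincubated 5 min with compound, then 75 nM FITC-MBM1 peptide for 15 min, ambient, Tris pH 7.5, 0.5% DMSO. HTRF 520/490 ratio; 11-point 3-fold titration; IC50 from % inhibition fit.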
# MOLM14 = experiment: Proliferation assay B (spheroid assay) MOLM14; assay type: cell-based, human; details: MOLM14 cells, confluence at day 8, absolute IC50, read-out: (3b) Spheroid assay MOLM14 (IC50(μM)) Assay B
# Protocol: 3b) Proliferation Assay B
# The anti-proliferative effect of menin/MLL protein/protein interaction inhibitor test compounds was assessed in human leukemia cell lines. The cell lines MV-4-11 and MOLM14 harbor MILL translocations and express the MILL fusion proteins MLL-AF4 and MLL-AF9, respectively, as well as the wildtype protein from the second allele. […] K562 was used as a control cell line containing two MLL wildtype alleles in order to exclude compounds that display general cytotoxic effects.
# MV-4-11 and MOLM14 were cultured in RPMI-1640 (Sigma Aldrich) supplemented with 10% fetal bovine serum (HyClone), 2 mM L-glutamine (Sigma Aldrich) and 50 μg/ml gentamycin (Gibco). K562 were propagated in RPMI-1640 (Sigma Aldrich) supplemented with 20% fetal bovine serum (HyClone), 2 mM L-glutamine (Sigma Aldrich) and 50 μg/ml gentamycin (Gibco).
# In order to assess the anti-proliferative effects, 1,500 MV-4-11, 300 MOLM14 cells or 750 K562 cells were seeded in 200 μl media per well in 96-well round bottom, ultra-low attachment plates (Costar, catalogue number 7007). Cell seeding numbers were chosen based on growth curves to ensure linear growth throughout the experiment. Test compounds were added at different concentrations and the DMSO content was normalized to 0.3%. Cells were incubated for 8 d at 37° C. and 5% CO2. Spheroid like growth was measured in real-time by live-cell imaging (IncuCyteZOOM, Essenbio, 4× objective) acquiring images at day 8. Confluence (%) as a measure of spheroid size was determined using an integrated analysis tool.
# In order to determine the effect of the test compounds over time, the confluence in each well as a measure of spheroid size, was calculated. Confluence […] at the beginning of the experiment (t=0) was used as baseline for the calculation.
# Absolute IC50 values were calculated as percent change in confluence as follows:
# LC=Low Control: cells treated with 1 μM of the cytotoxic agent staurosporin
# HC=High Control: Mean confluence (%) (DMSO treated cells) % Effect=100−(100*(Sample−LC)/(HC−LC))
# To determine the IC50 a curve is fitted to the plot of % Effect vs Log 10 compound concentration using a sigmoidal fit with a variable slope and fixing the maximum to 100% and the minimum to 0%.
# [1] = location 2, read-out: (2) location 2 Menin HTRF assay (IC50 (nM))
Compound,IC50 (menin; [1]),"IC50 (MOLM14; Homo sapiens, MOLM-14, 192 h)",IC50 (MOLM14),"IC50 (menin; location 1, read-out: (2) location 1 Menin HTRF assay (IC50 (nM)))"
N#Cc1ccc(NC2CC3(CCN(c4ncnc5sc(CC(F)(F)F)cc45)C3)C2)cn1 (mixture of isomers) [Compound 176],18.7 nM,1.55 µM,–,–
CN(C)CCN(C)C(=O)c1ccc(NC2CC3(CCN(c4ncnc5sc(CC(F)(F)F)cc45)C3)C2)cc1 (mixture of isomers) [Compound 180],43.4 nM,> 3.75 µM,–,–
CC(NC(=O)c1ccc(NC2CC3(CCN(c4ncnc5sc(CC(F)(F)F)cc45)C3)C2)cc1)C1CCN(S(C)(=O)=O)CC1 (mixture of isomers) [Compound 191],7.9 nM,1.22 µM,–,–
CC(CN1CCN(S(C)(=O)=O)CC1)NC(=O)c1ccc(NC2CC3(CCN(c4ncnc5sc(CC(F)(F)F)cc45)C3)C2)cc1 (mixture of isomers) [Compound 192],13.1 nM,1 µM,–,–
CC(CN(C)C)NC(=O)c1ccc(NC2CC3(CCN(c4ncnc5sc(CC(F)(F)F)cc45)C3)C2)cc1 (mixture of isomers) [Compound 193],4.2 nM,0.46 µM,–,–
O=c1[nH]c2ccc(NCC3CC4(CCN(c5ncnc6sc(CC(F)(F)F)cc56)C4)C3)cc2[nH]1 (mixture of isomers) [Compound 198],141 nM,> 3.75 µM,–,–
CNC(=O)c1ccc(NC2CC3(CCN(c4ncnc5sc(CC(F)(F)F)cc45)C3)C2)cc1Cl (mixture of isomers) [Compound 214],9.4 nM,> 3.75 µM,–,–
CS(=O)(=O)N1CCN(CCn2c(=O)[nH]c3ccc(NC4CC5(CCN(c6ncnc7sc(CC(F)(F)F)cc67)C5)C4)cc32)CC1 (mixture of isomers) [Compound 221],4000 nM,> 3.75 µM,–,–
CS(=O)(=O)N1CCN(CCn2c(=O)[nH]c3cc(NC4CC5(CCN(c6ncnc7sc(CC(F)(F)F)cc67)C5)C4)ccc32)CC1 (mixture of isomers) [Compound 222],418 nM,> 3.75 µM,–,–
CNC(=O)c1ccc(NC2CC3(CCN(c4ncnc5sc(CC(F)(F)F)cc45)C3)C2)cc1CCCN(C)C (mixture of isomers) [Compound 236],80 nM,> 3.75 µM,–,–
CN1CCC(COc2cc(NC3CC4(CCN(c5ncnc6sc(CC(F)(F)F)cc56)C4)C3)ccc2C#N)CC1 (mixture of isomers) [Compound 241],114 nM,2.64 µM,–,–
CNc1nc(N2CCC3(CC(Nc4ccc5c(c4)oc(=O)n5CCN4CCN(S(C)(=O)=O)CC4)C3)C2)c2cc(CC(F)(F)F)sc2n1 (mixture of isomers) [Compound 250],146 nM,> 3.75 µM,–,–
CNC(=O)c1cnc(NC2CC3(CCN(c4ncnc5sc(CC(F)(F)F)cc45)C3)C2)nc1 (mixture of isomers) [Compound 257],10.6 nM,> 3.75 µM,–,–
CNC(=O)c1ccc(NC2CC3(CCN(c4ncnc5sc(CC(F)(F)F)cc45)C3)C2)cc1 (mixture of isomers) [Compound 329],2 nM,–,2.54 µM,–
CS(=O)(=O)N1CCC(C#N)(c2ccc(NC3CC4(CCN(c5ncnc6sc(CC(F)(F)F)cc56)C4)C3)cc2)CC1 (mixture of isomers) [Compound 340],7.1 nM,2.47 µM,–,–
CS(=O)(=O)c1ccc(NC2CC3(CCN(c4ncnc5sc(CC(F)(F)F)cc45)C3)C2)cc1 (mixture of isomers) [Compound 342],4.8 nM,> 3.75 µM,–,–
CS(=O)(=O)Nc1ccc(NC2CC3(CCN(c4ncnc5sc(CC(F)(F)F)cc45)C3)C2)cc1 (mixture of isomers) [Compound 343],4.9 nM,> 3.75 µM,–,–

Compound,IC50 (menin; [1]),"IC50 (MOLM14; Homo sapiens, MOLM-14, 192 h)",IC50 (MOLM14),"IC50 (menin; location 1, read-out: (2) location 1 Menin HTRF assay (IC50 (nM)))"
CS(=O)(=O)Cc1ccc(NC2CC3(CCN(c4ncnc5sc(CC(F)(F)F)cc45)C3)C2)cc1 (mixture of isomers) [Compound 344],13.4 nM,> 3.75 µM,–,–
O=C1OCCN1c1ccc(NC2CC3(CCN(c4ncnc5sc(CC(F)(F)F)cc45)C3)C2)cc1 (mixture of isomers) [Compound 345],6.8 nM,2.33 µM,–,–
O=C1NCCN1c1ccc(NC2CC3(CCN(c4ncnc5sc(CC(F)(F)F)cc45)C3)C2)cc1 (mixture of isomers) [Compound 346],7.3 nM,2.11 µM,–,–
O=C1OCCN1Cc1ccc(NC2CC3(CCN(c4ncnc5sc(CC(F)(F)F)cc45)C3)C2)cc1 (mixture of isomers) [Compound 347],9.1 nM,3.18 µM,–,–
NC(=O)Cc1ccc(NC2CC3(CCN(c4ncnc5sc(CC(F)(F)F)cc45)C3)C2)cc1 (mixture of isomers) [Compound 348],14.5 nM,> 3.75 µM,–,–
CS(=O)(=O)N1CCN(CCn2c(=O)oc3ccc(CNC4CC5(CCN(c6ncnc7sc(CC(F)(F)F)cc67)C5)C4)cc32)CC1 (mixture of isomers) [Compound 349],19.3 nM,> 3.75 µM,–,–
FC(F)(F)Cc1cc2c(N3CCC4(CC(Nc5ccc(CN6CCOCC6)cc5)C4)C3)ncnc2s1 (mixture of isomers) [Compound 350],21.1 nM,3.55 µM,–,–
CS(=O)(=O)N1CCN(Cc2ccc(NC3CC4(CCN(c5ncnc6sc(CC(F)(F)F)cc56)C4)C3)cc2)CC1 (mixture of isomers) [Compound 351],15.5 nM,3.51 µM,–,–
Nc1nc(N2CCC3(CC(Nc4ccc5[nH]c(=O)[nH]c5c4)C3)C2)c2cc(CC(F)(F)F)sc2n1 (mixture of isomers) [Compound 381],9.4 nM,> 3.75 µM,–,–
"CNC(=O)c1ccc(NC2CC3(CCN(c4ncnc5sc(CC(F)(F)F)cc45)C3)C2)c(Cl)c1 (single isomer, unassigned) [Compound 69]",1.7 nM,–,0.69 µM,–
"CN1CCC(c2cc(NC3CC4(CCN(c5ncnc6sc(CC(F)(F)F)cc56)C4)C3)ccc2C#N)CC1 (single isomer, unassigned) [Compound 80]",8.7 nM,–,0.95 µM,–
"COCCNC(=O)c1ccc(NC2CC3(CCN(c4ncnc5sc(CC(F)(F)F)cc45)C3)C2)cc1 (single isomer, unassigned) [Compound 86]",91.8 nM,> 3.75 µM,–,–
"O=C(NCCN1CCOCC1)c1ccc(NC2CC3(CCN(c4ncnc5sc(CC(F)(F)F)cc45)C3)C2)cc1 (single isomer, unassigned) [Compound 88]",3.8 nM,0.99 µM,–,–
"Cn1c(=O)[nH]c2cc(NC3CC4(CCN(c5ncnc6sc(CC(F)(F)F)cc56)C4)C3)ccc21 (single isomer, unassigned) [Compound 90]",20.2 nM,0.85 µM,–,–
"CS(=O)(=O)N[C@H]1CC[C@H](NC2CC3(CCN(c4ncnc5sc(CC(F)(F)F)cc45)C3)C2)CC1 (single isomer, unassigned) [Compound 103]",1200 nM,> 3.75 µM,–,1160 nM
"N#Cc1ccc(NC2CC3(CCN(c4ncnc5sc(CC(F)(F)F)cc45)C3)C2)nc1 (single isomer, unassigned) [Compound 174]",–,–,2.94 µM,–
"N#Cc1ccc(NC2CC3(CCN(c4ncnc5sc(CC(F)(F)F)cc45)C3)C2)nc1 (single isomer, unassigned) [Compound 175]",33.4 nM,–,1.09 µM,–
